# Results: PMC2674291 (The Open Biochemistry Journal, 2009)
# Assays:
# [1] = tested on: Phenoloxidase of the resistant strain (POr); details: 20 mM PBS pH 6.5; room temperature; partially purified enzyme
# [2] = tested on: Phenoloxidase of the susceptible strain (POs); assay: absorbance at […] nm, initial rate, microtiter plate; type: biochemical, Plutella xylostella; details: 20 mM PBS pH 6.5; room temperature; partially purified enzyme
smiles,measurement,setting,value
N[C@@H](Cc1ccc(O)c(O)c1)C(=O)O [L-DOPA],Km,[1],1110 µM
same,Km,[2],1110 µM
